Source: patent US5451582A, “Benzodiazepine derivatives, compositions containing them and their use in therapy” (Merck Sharp & Dohme Ltd., priority 1992, dated 1995)

Columns and labels:
CCK receptor (brain) = biological target: T1, CCK receptor (brain) (Cavia porcellus, UniProt H0VZC5); test: CCK Receptor Binding (Brain), inhibition of 125I-CCK-8 binding; design: species or system guinea pig (male Hartley); conditions: guinea pig cortex membranes; 50 pM 125I-CCK-8; pH 6.5; 25° C., 2 hours
T1 construct: the cortex was removed and homogenized in 25 mL ice-cold 0.32M sucrose; from tissue; host or cells: guinea pig cerebral cortex P2 membranes (male Hartley)
T1 sequence (H0VZC5 1-426): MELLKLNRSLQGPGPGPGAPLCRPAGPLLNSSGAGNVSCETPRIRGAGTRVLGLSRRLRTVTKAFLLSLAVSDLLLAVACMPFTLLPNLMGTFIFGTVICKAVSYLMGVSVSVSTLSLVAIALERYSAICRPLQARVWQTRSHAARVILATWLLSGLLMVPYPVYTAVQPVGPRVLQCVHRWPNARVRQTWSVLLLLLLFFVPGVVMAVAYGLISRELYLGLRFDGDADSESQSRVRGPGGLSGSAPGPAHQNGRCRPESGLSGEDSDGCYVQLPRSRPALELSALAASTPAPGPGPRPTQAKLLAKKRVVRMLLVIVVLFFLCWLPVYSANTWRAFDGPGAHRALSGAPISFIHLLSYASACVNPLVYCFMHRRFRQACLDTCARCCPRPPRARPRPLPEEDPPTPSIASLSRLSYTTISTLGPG
Procedure: 2. CCK Receptor Binding (Brain)
CCK-8 sulphated was radiolabelled and the binding was performed according to the description for the pancreas method with minor modifications.
Male Hartley guinea pigs (300-500 g) were sacrificed by decapitation and the cortex was removed and homogenized in 25 mL ice-cold 0.32M sucrose. The homogenates were centrifuged at 1000 g for 10 minutes and the resulting supernatant was recentrifuged at 20,000 g for 20 minutes. The P2 pellet was resuspended in binding assay buffer (20 mM HEPES, 5 mMMgCl2, 0.25 ml/ml bacitracin, 1 mM EGTA pH 6.5 at 25° C.), using a Teflon (trademark) homogenizer (5 strokes at 500 rpm) to give a final concentration of […] original wet weight/1.2 ml buffer. For the binding assay, 50 μl of buffer (for total binding) or unlabelled CCK-8 sulphated to give a final concentration of 1 μM (for nonspecific binding) or the compounds of Formula I (for determination of inhibition of ^125 I-CCK-8 binding) and 50 μl of 500 pM ^125 I-CCK-8 (i.e. final concentration of 50 pM) were added to 400 μl of the membrane suspensions in microfuge tubes. All assays were run in duplicate. The reaction mixtures were incubated at 25° C. for 2 hours and then the reaction was terminated by rapid filtration (Brandell 24 well cell harvester) on Whatman GF/C filters with 3×5 ml washes of cold 100 mM NaCl. The radioactivity on the filters was counted with a LKB gamma counter.
The preferred compounds of Formula I are those which produced dose-dependent inhibition of specific ^125 I-CCK-8 binding as defined as the difference between total and non-specific (i.e. in the presence of 1 μM CCK) binding.
Drug displacement studies were performed with at least 10 concentrations of compounds of Formula I and the IC50 values were determined by regression analysis IC50 refers to the concentration of the compound required to inhibit 50% of specific binding of ^125 I-CCK-8.

CCK receptor (pancreas) = biological target: T2, CCK receptor (pancreas) (Rattus norvegicus, UniProt P30551); test: CCK Receptor Binding (Pancreas), inhibition of 125I-CCK-8 binding; design: species or system rat (male Sprague-Dawley); conditions: rat pancreas membranes; 50 pM 125I-CCK-8; pH 6.5; 25° C., 2 hours
T2 construct: The whole pancreas was dissected free of fat tissue and was homogenized; from tissue; host or cells: rat pancreas membranes (male Sprague-Dawley)
T2 sequence (P30551 1-444): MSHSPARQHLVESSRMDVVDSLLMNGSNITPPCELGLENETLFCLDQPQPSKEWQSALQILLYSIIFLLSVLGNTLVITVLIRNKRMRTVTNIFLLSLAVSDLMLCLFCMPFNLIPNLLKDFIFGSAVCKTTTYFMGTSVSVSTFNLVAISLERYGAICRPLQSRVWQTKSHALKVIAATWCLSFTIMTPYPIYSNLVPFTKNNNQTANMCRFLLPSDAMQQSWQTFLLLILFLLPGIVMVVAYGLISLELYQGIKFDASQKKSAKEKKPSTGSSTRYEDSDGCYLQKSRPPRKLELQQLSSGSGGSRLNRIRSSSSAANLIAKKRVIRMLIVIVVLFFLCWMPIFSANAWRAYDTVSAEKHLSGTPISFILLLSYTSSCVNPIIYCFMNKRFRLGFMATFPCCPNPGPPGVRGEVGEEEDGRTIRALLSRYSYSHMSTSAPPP
Procedure: 1. CCK Receptor Binding (Pancreas)
CCK-8 sulphated was radiolabelled with ^125 I-Bolton Hunter reagent (2000 Ci/mmole). Receptor binding was performed according to Chang and Lotti (Proc. Natl. Acad. Sci. 83, 4923-4926, 1986) with minor modifications.
Male Sprague-Dawley rats (150-200 g) were sacrificed by decapitation. The whole pancreas was dissected free of fat tissue and was homogenized in 25 volumes of ice-cold 10 mM N-2-hydroxyethyl-piperazine-N'-2-ethane sulphonic acid (HEPES) buffer with 0.1% soya bean trypsin inhibitor (pH 7.4 at 25° C.) with a Kinematica Polytron. The homogenates were centrifuged at 47,800 g for 10 min. Pellets were resuspended in 10 volumes of binding assay buffer (20 mM (HEPES)), 1 mM ethylene glycol-bis-(β-aminoethylether-N,N'-tetraacetic acid) (EGTA), 5 mM MgCl2, 150 mM NaCl, bacitracin 0.25 ml/ml, soya bean trypsin inhibitor 0.1 ml/ml, and bovine serum albumin 2 ml/ml pH 6.5 at 25° C.) using a Teflon (trademark) homogenizer, 15 strokes at 500 rpm. The homogenate was further diluted in binding assay buffer to give a final concentration of 0.5 ml original wet weight/1 ml buffer. For the binding assay, 50 μl of buffer (for total binding) or unlabelled CCK-8 sulphated to give a final concentration of 1 μM (for nonspecific binding) or the compounds of Formula I (for determination of inhibition of ^125 I-CCK-8 binding) and 50 μl of 500 pM ^125 I-CCK-8 (i.e. 50 pM final concentration) were added to 400 μl of the membrane suspensions in microfuge tubes. All assays were run in duplicate. The reaction mixtures were incubated at 25° C. for 2 hours and the reaction terminated by rapid filtration (Brandell 24 well cell harvester) over Whatman GF/C filters, washing 3×4 mls with ice-cold 100 Mm NaCl. The radioactivity on the filters was counted with a LKB gamma counter.
The preferred compounds of Formula I are those which produced dose-dependent inhibition of specific ^125 I-CCK-8 binding as defined as the difference between total and non-specific (i.e. in the presence of 1 μM CCK) binding. […]

IC50 (CCK receptor (brain)) [nM]	IC50 (CCK receptor (pancreas)) [nM]	SMILES
17	600	CC(C)CN1C(=O)C(NC(=O)Nc2cccc(-c3nn[nH]n3)c2)N=C(C(C)C)c2ccccc21 (racemic) [Example 2, N-[3(R,S)-2,3-Dihydro-1-(2-methylpropyl)-2-oxo-5-(2-propyl) -1H-1,4-benzodiazepin-3-yl]N'-[3-tetrazol-5-ylphenyl]urea]
104	> 3000	CC1=NC(NC(=O)Nc2cccc(-c3nn[nH]n3)c2)C(=O)N(C)c2ccccc21 (racemic) [Example 1, N-[3(R,S)-2,3-Dihydro-1,5-dimethyl-2-oxo-1H-1,4-benzodiazepin-3-yl]N'-[3-tetrazol-5-ylphenyl]urea]
32	612	CC(C)CN1C(=O)C(NC(=O)Nc2cccc(C(=O)NS(C)(=O)=O)c2)N=C(C(C)(C)C)c2ccccc21 (racemic) [Example 3, N-[3(R,S)-2,3-Dihydro-5-(1,1-dimethylethyl)-1-(2-methylpropyl) -2-oxo-1H-1,4-benzodiazepin-3yl]N'-(3-(methylsulphonylaminocarbonyl)phenyl]urea]
